Assay results taken from ChEMBL document CHEMBL2074104, “Interaction of cysteine conjugates with human and rabbit organic anion transporter 1” (J Pharmacol Exp Ther, 2003).

How the values were obtained:
[1] = target: T1, Solute carrier family 22 member 6 (Homo sapiens, UniProt Q4U2R8); experiment: TP_TRANSPORTER: inhibition of PAH uptake in OAT1-expressing CHO cells; type: functional, cell-based
T1 sequence (Q4U2R8 whole entry): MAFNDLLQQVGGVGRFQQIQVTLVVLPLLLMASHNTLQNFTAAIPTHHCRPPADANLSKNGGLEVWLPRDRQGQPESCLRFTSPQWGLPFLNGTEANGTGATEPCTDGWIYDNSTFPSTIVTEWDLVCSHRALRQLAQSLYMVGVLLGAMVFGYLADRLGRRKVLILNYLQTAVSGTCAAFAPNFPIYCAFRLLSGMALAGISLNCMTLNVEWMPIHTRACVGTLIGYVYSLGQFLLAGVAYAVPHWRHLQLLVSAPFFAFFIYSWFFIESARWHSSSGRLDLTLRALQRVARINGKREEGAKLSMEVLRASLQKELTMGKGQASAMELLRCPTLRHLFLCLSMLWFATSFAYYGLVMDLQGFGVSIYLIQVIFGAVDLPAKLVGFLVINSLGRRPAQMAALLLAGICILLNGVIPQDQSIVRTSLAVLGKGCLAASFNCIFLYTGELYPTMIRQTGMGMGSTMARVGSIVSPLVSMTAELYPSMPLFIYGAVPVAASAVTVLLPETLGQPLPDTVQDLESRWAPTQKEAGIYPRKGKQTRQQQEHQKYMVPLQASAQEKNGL

[2] = target: T1, Solute carrier family 22 member 6; experiment: TP_TRANSPORTER: inhibition of PAH uptake in OAT1-COS7 cells; type: functional, cell-based, COS-7
[3] = target: T1, Solute carrier family 22 member 6; experiment: TP_TRANSPORTER: trans-stimulation in OAT1-COS7 cells; type: functional, cell-based, COS-7

## N[C@@H](CSc1nc2ccccc2s1)C(=O)O
[1]
  IC50: 9.9 µM

## N[C@H](CS/C(Cl)=C/Cl)C(=O)O
[2]
  IC50: 208 µM

## N[C@H](CSc1nc2ccccc2s1)C(=O)O [BENZOTHIAZOLYLCYSTEINE]
[3]
  IC50: 9.9 µM
